Data as given in patent US20090162315A1 (priority 2004, published 2009).
Where “and” joins values, the source holds several entries; their conditions need not be identical. Equal values may be shown once.

Assays:
[1] = tested on: T84 human colon-carcinoma cells; format: cell-based
[2] = tested on: T84 human colon-carcinoma cells; format: cell-based; remark: listed apart in the source
[3] = tested on: T84 human colon-carcinoma cells; format: cell-based; remark: listed apart in the source
patients with MPE = details: in vivo; cited from earlier work

Staphylococcal enterotoxin B [SEB]
Δ Isc to CCh (μA/cm2) [1]: 23 μA/cm2
Δ Isc to Fsk (% of control) [1]: 95 % of control

N.N.[Cl][Pt][Cl] [Cisplatin, cis-diaminodichloroplatinum]
^51Cr-EDTA flux (nml · h · cm^2) [2]: 2.8 nml · h · cm^2
Δ Isc to CCh (μA/cm2) [1]: 20 μA/cm2
Δ Isc to Fsk (% of control) [1]: 90 % of control
TER (Ω/cm^2) [3]: 800 Ω/cm^2 and 750 Ω/cm^2

bleomycin
Response rate in MPE (patients with MPE): 50%
